In patent US20100292262A1, “4 (PYRROLO[2,3-C]PYRIDINE-3-YL)PYRIMIDIN-2-AMINE DERIVATIVES” (Merck Patent Gesellschaft Mit Beschrankter Haftung, priority 2008, published 2010):

Key:
[1] = test system: A2780 (ovary) cells; assay: Inhibition of the proliferation/vitality of tumour cells (Alamar Blue test); assay type: cell-based; conditions: Homo sapiens, 96 h, 4 days cultivation with test substance in serum-containing medium, Alamar Blue readout
Protocol: In the present experiment description, the inhibition of tumour cell proliferation/tumour cell vitality by active ingredients is described. The cells are sown in a suitable cell density in microtitre plates (96-well format) and the test substances are added in the form of a concentration series. After four further days of cultivation in serum-containing medium, the tumour cell proliferation/tumour cell vitality can be determined by means of an Alamar Blue test system.
The cells are cultivated in medium. At intervals of several days, the cells are detached from the culture dishes with the aid of trypsin solution and sown in suitable dilution in fresh medium. The cells are cultivated at 37° Celsius and 10% CO2. […]
In each case, 20 μl of Alamar Blue reagent are added per well, and the microtitre plates are incubated, for example, for a further seven hours in a CO2 incubator (at 37° C. and 10% CO2). The plates are measured in a reader with a fluorescence filter at a wavelength of 540 nm. […]
The absorbance value of the medium control (no cells and test substances used) is subtracted from all other absorbance values. The controls (cells without test substance) are set equal to 100 percent, and all other absorbance values are set in relation thereto (for example in % of control):
IC50 values (50% inhibition) are determined with the aid of statistics programs, such as, for example, RS1.

Row | melting point | IC50 [1] [nM] | SMILES
1 | 184 to 187 °C (dec.) | – | CCCCc1cc(-c2c[nH]c3cnccc23)nc(N)n1 [Compound A1, 4-butyl-6-(1H-pyrrolo[2,3-c]pyridin-3-yl)pyrimidin-2-ylamine]
2 | – | 10 to 1000 | c1ccc(Nc2nccc(-c3c[nH]c4cnccc34)n2)cc1 [Compound A3, phenyl-[4-(1H-pyrrolo[2,3-c]pyridin-3-yl)pyrimidin-2-yl]-amine]
3 | – | 10 to 1000 | Nc1nccc(-c2c[nH]c3cnccc23)n1 [Compound A4, 4-(1H-pyrrolo[2,3-c]pyridin-3-yl)pyrimidin-2-ylamine]
